Results from EP1158000A1, “Crystal structure data of cystalysin and use thereof for the design and preparation of inhibitor molecules” (priority 2000, dated 2001).
Like-named read-outs stand apart in the source and are kept apart here.

Assays:
cystalysin [1] = experiment: Spectral measurement of cystalysin after treatment with AVG; format: biochemical, Treponema denticola; settings: chromophore at 336 nm formed simultaneously, spectra at 20°C in 100 mM phosphate buffer
Procedure: PLP-dependent enzymes catalyzing β-elimination reactions are known to be inhibited by a number of β,γ-unsaturated amino acids like the natural toxins rhizobitoxin (Owens et al., 1968) and L-aminoethoxyvinylglycine (AVG) (Pruess et al., 1974), that act as so-called slow-binding inhibitors (Morrison and Walsh, 1988). […] Spectral and fluorescence measurements lead to similar observations for cystalysin after incubation with AVG (Figure 4A). […] The inhibitor is mainly bound by hydrogen bonds to its carboxylate oxygens which originate from Ala39, Asn 175 and Arg369 (Figure 4C). […] Hydrophobic interactions are with Tyr64* and Phe273* which are in van-der-Waals contact to the carbon atoms CFI, CEI and CGI. Contrary for CBL, the amino-tail of the inhibitor is not bound to Tyr123, but stretched out in opposite direction towards a large hydrophobic cavity formed by the residues Leu17, Val38, Typ64* and Phe273* that is absent in CBL. […]
(A) The spectra of uncomplexed cystalysin and cystalysin after treatment with AVG, recorded at 20°C in 100 mM phosphate buffer. (B) Final 2Fo-Fc electron density of the PLP-AVG complex (yellow) and the intermediate protein vicinity (color-coding by atom type), contoured at 1.2 σ and calculated at 2.5 Å resolution. […]

[2] = target: cystathionine β-lyase (CBL) (Escherichia coli, UniProt P06721); settings: upon treatment with AVG; cited from earlier work
cystalysin [3] = experiment: Loss of cystalysin enzyme activity through AVG; format: biochemical, Treponema denticola; settings: dead end ketimine PLP derivative formed with AVG
Procedure: Overall, the PLP cofactor remains fixed in position with only the pyridine ring rotated slightly (≤ 10°), while no major structural changes regarding domain movement have been observed. These findings are contradicting an open/closed mechanism upon substrate binding, since the cystalysin-AVG structure should resemble the physiological enzyme-substrate complex. Due to the similarities in inhibition pattern and spectral changes, AVG should act on cystalysin in a similar manner as reported for CBL (Clausen et al., 1997). After transaldimination, a proton transfer from C^α to C4' is mediated by the deprotonated ε-amino group of the released Lys238, instead of protonating the leaving group. The resulting "dead end" ketimine PLP derivative is responsible for the observed 336 nm-chromophore and the total loss of enzyme activity. The inability of cystalysin to catalyze a transamination of this ketimine also accounts for the high stability of the final intermediate.

cystalysin [4] = settings: substrate cleavage by cystalysin; cited from earlier work
[5] = target: T1, PLP-dependent β-cystathionase (osteotoxin) (Bordetella avium, UniProt Q07703); settings: cited from earlier work
T1 sequence (Q07703 2-396 limits assumed): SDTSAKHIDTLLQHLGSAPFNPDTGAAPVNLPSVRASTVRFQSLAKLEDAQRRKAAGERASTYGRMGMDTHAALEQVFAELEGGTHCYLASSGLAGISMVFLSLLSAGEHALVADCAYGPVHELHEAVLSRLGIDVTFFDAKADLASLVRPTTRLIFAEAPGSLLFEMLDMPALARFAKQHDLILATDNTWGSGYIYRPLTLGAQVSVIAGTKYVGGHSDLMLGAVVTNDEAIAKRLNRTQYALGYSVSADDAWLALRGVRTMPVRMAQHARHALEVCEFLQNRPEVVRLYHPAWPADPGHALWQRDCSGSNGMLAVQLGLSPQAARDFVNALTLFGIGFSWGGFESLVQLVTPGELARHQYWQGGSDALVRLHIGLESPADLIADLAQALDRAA

cystathionine β-lyase (CBL), sequence (P06721 2-395): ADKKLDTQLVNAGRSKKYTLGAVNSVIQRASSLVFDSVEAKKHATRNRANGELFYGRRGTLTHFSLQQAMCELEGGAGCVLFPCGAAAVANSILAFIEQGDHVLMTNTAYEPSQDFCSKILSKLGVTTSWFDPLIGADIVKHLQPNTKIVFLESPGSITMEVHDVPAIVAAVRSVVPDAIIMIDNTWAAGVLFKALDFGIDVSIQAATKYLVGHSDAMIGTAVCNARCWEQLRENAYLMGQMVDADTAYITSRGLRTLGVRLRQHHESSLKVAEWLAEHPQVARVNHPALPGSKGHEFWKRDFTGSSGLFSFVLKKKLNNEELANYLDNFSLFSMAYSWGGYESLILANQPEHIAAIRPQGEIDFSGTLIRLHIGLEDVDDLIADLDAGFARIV

Compound	pyridoxaldimine absorbance of the active enzyme at 419 nm (cystalysin [1])	interaction with CBL [2]	enzyme activity (cystalysin [3])	Kcat (cystalysin [4])	Km (cystalysin [4])	Km ([5]; highest affinity substrate)	Km ([5]; weak affinity substrate)
NCCO/C=C/[C@H](N)C(=O)O [AVG, L-aminoethoxyvinylglycine]	rapid and complete loss	time-dependent formation of a long-lived, slowly dissociating enzyme-inhibitor compolex	total loss	–	–	–	–
N[C@@H](CS)C(=O)O [cysteine]	–	–	–	12 s⁻¹	3.6 mM	0.077 mM	5 mM
